Square brackets hold non-standard residues; d marks the D form. Peptide text beside a SMILES is read from it. * marks the point of attachment. Sta = CC(C)C[C@H](N)[C@@H](O)CC(=O)O; Isovaleryl = CC(C)CC(=O)*

Test [1] relates to 13D11. The test can be described thus: Effect of common protease inhibitors on the antibody-catalyzed reaction. The note with it: inhibitor concentrations sufficient to abolish the respective proteases. In kind it is biochemical, mouse. The method, then: Extensive purification of 13D11 was carried out. Monoclonal antibodies were purified from ascites using standard procedures of lipid extraction and ammonium sulfate precipitation followed by column chromatography on protein A, DEAE, Mono Q, and finally Alkyl Superose (Pharmacia, Piscataway, N.J.). Finally, nine common inhibitors of known proteases were tested at concentrations sufficient to completely abolish all for their effect on the antibody-catalyzed reaction.

Test [2] concerns 13D11. Nature of the test: Inhibition of 13D11-catalyzed hydrolysis by haptens/inhibitors. The class given is biochemical, mouse. On the procedure:
Antibody 13D11 (14.5 μM) was re-screened for activity toward 10 (nominally 500 μM) in the absence and presence of 63 μM (RT-2 hapten)(D/L mixture).
Until this point, 13D11 antibody had been purified by Protein A and DEAE chromatography. To determine whether the activity toward 10 was due to a contaminating enzyme, 13D11 was further purified on a Mono Q column (Pharmacia) by FPLC.
Hapten Ki was determined by quantitating the effect of the concentration of 1b or 1c on the velocity of 13D11 hydrolysis of 2b. Rates obtained at fixed antibody and substrate concentrations were fitted to the equation; V1/Vo=(2[Ab]−[l]−Ki′+{([l]+Ki′−2[Ab])^2+4Ki′2[Ab]}^0.5)/4[Ab], where Vi and Vo are, respectively, the velocities in the presence and absence of hapten, 2[Ab] is the total concentration of antibody combining sites, [l] is hapten concentration, Ki′=Ki/(1+[S]/Km), and Ki is the inhibition constant (S. Cha, Biochem. Pharmacol. 1975, 24, 2177).
Control experiments verified that the hydrolytic activity was not due to a contaminating protease. […] (The (L)-hapten spatially corresponds to the (D)-amide substrate.) The inhibition constant, Ki, was determined by an HPLC assay to be 14.0 (±+1.6) μM.
The substrate specificity of 13D11 was more rigorously determined by monitoring its activity towards the dansylated amides 9 and 10, dansylated esters 11 and 12, acetylated amides 13 and 14, and acetylated esters 15 and 16. The esterolytic activity of 13D11 with the dansylated or acetylated esters (45 μM-1.0 mM) was examined at 25° C. in an assay mixture containing MTEN, 0.1 mM EDTA, 0.1 mM PMSF, 0.01% NaN3, and 13D11 (7-14 μM). Aliquots were removed from the incubation mixtures every hour for 4 hours and kept in ice prior to analysis. The dansylated esters were analyzed by TLC while the acetylated esters were subjected to HPLC analysis. […] The observed esterase activity may be due to a trace of a contaminating enzyme in the antibody preparation.
The amidase activity of 13D11 was likewise examined using the same buffer system as the one mentioned above in the presence of 13D11 (17 μM), and the acetylated amide 13 or 14 (0.5-1.0 mM). […] The ability of 13D11 to discriminate between the dansylated amides 9 and 10 was investigated by determining the formation of the hydrolysis product by TLC. The reaction samples containing 150 μM of either amide 9 or 100 30 μM 13D11, with or without hapten 5 (0.5 mM) in the above buffer system were assayed after 5 days of incubation at 25° C. […] Thus, the activity of the catalytic antibody requires the alkyl linker that was present during immunization, and has a stereospecificity opposite of known natural proteolytic enzymes.
An important control in the examination of the catalytic activity of 13D11 IgG molecule is the retention of the haptenic and substrate binding abilities by its Fab′ fragment. Accordingly, the amidase activities of 13D11 (whole IgG molecule) and the 13D11 Fab′ fragment were compared. The reaction mixtures contained MTEN, 1 mM EDTA, 0.1 mM PMSF, 0.01% NaN3, 150 μM dansylated amide 9 or 100 μM 13D11 (IgG) or Fab′, with or without (assumed) hapten 5 (0.5 mM). […] The esterase activity for the Fab′ fragment was also examined in the above buffer system containing 100 μM of either ester 11 or 12, and 7 μM 13D11 (Fab′). Aliquots were removed at various time points and analyzed by TLC. […] The contaminating enzyme in the antibody solution may have been removed during the purification of the Fab′ fragment.

On to aprotinin, for which the “effect on amidolytic activity of 13D11” value in the test with 13D11 [1] was “essentially unaffected”.

For the molecule `CC(C)C[C@H](NP(=O)(O)O[C@@H]1O[C@@H](C)[C@H](O)[C@@H](O)[C@H]1O)C(=O)N[C@@H](Cc1c[nH]c2ccccc12)C(=O)O` [phosphoramidon], the “effect on amidolytic activity of 13D11” value in the test with 13D11 [1] was “essentially unaffected”.

On to `O=C(O)CN(CCN(CC(=O)O)CC(=O)O)CC(=O)O` [EDTA], for which, in the test on 13D11 [1], the “effect on amidolytic activity of 13D11” value is given as “essentially unaffected”.

Turning to `CC(C)C[C@H](NC(=O)[C@@H](O)[C@H](N)Cc1ccccc1)C(=O)O` [bestatin], in the test with 13D11 [1], the “effect on amidolytic activity of 13D11” value is listed as “Partial inhibition”.

Regarding `CC(C)C[C@H](NC(=O)[C@H]1O[C@@H]1C(=O)O)C(=O)NCCCCN=C(N)N` [Compound E-64], in the test with 13D11 [1], the “effect on amidolytic activity of 13D11” value is “Partial inhibition”.

As for `CC(=O)N[C@@H](CC(C)C)C(=O)N[C@@H](CC(C)C)C(=O)N[C@H](C=O)CCCNC(=N)N` [leupeptin], the “effect on amidolytic activity of 13D11” value in the test on 13D11 [1] is “essentially unaffected”.

For `O=S(=O)(F)Cc1ccccc1` [PMSF], the “effect on amidolytic activity of 13D11” value with 13D11 [1] is on record as “essentially unaffected”.

With `O=S(=O)(O)CCNC1CCCCC1` [CHES], the “effect of buffer on hydrolysis of 10 by 13D11” value in the test with 13D11 [2] (CHES buffer tried as an alternative to Tris) is reported as “inhibit the hydrolysis”.

For the molecule `CC(C)CC(=O)N[C@H](C(=O)N[C@H](C(=O)N[C@@H](CC(C)C)[C@@H](O)CC(=O)N[C@@H](C)C(=O)N[C@@H](CC(C)C)[C@@H](O)CC(=O)O)C(C)C)C(C)C` [pepstatin] (Isovaleryl-VV[Sta]A[Sta]-OH), in the test with 13D11 [1], the “effect on amidolytic activity of 13D11” value is “Partial inhibition”.

Regarding `CC(=O)NCCCCCC(=O)NC(Cc1ccccc1)P(C)(=O)O` (centres unmarked) [Compound 5], the Ki (as a rule, a measure of affinity in units of concentration, obtained from inhibition or displacement) at 13D11 [2] (13D11 hydrolysis of 10, HPLC assay, read-out: inhibition constant, Ki) turned out to be 14 µM. In addition, in the test with 13D11 [2] (25° C., MTEN), the “inhibition of esterase activity toward 11 in the 13D11 preparation” value is “not inhibited”. Also, the “inhibition of 13D11 amidase activity toward 10” value in the test with 13D11 [2] (hapten 5 0.5 mM, 5 days at 25° C., TLC) is given as “inhibition of its amidase activity”. Further, the “inhibition of amidase activities of 13D11 IgG and Fab′” value with 13D11 [2] (hapten 5 0.5 mM, dansylated amide 10) was “inhibited”. The “inhibition of 13D11 by hapten enantiomers” value with 13D11 [2] (hydrolysis of 10) is “inhibited 13D11”.

Values taken from patent US20020045231A1, “Catalytic antibodies which hydrolyze primary amides and methods for eliciting such antibodies” (priority 1999, published 2002).
